In patent publication US20060135440A1, “Use of ribose to alleviate rhabdomyolysis and the side effects of statin drugs” (priority 2004, published 2006):

What was measured:
Format in all cases: in vivo, human
[1] = test system: patients with chronic fatigue syndrome or fibromyalgia syndrome; assay: Pre- and post-ribose Visual Analog Scale assessment in chronic fatigue syndrome or fibromyalgia syndrome patients
Excerpt: There is a cluster of diseases of unknown etiology that share some common symptoms. Included in this cluster are chronic fatigue syndrome, fibromyalgia syndrome and statin-induced myalgia. The most prominent symptoms is pain in the muscles, accompanied by pain in connective tissue (fibromyalgia), sleep disturbance, lack of mental clarity and feelings of well-being. In addition to the patients of Example 1 and 2, who presented with statin-induced myalgia, a mixed cohort of patients having given a physician's diagnosis of chronic fatigue syndrome or fibromyalgia syndrome were given a supply of D-ribose for self administration. Each patient served as his or her control, the results being reported as pre- and post-ribose administration. Compliance was estimated by the amount of the ribose supply remaining. Those patients having administered at least one-half of the 280 grams supply were included in the following summary. A total of 41 subjects were enrolled, of whom five were considered non-compliant and excluded from these analyses. Of the remaining 36 subjects, 78% were female, average age 48 years; 58% and 85% had been previously diagnosed with fibromyalgia and/or chronic fatigue syndrome. Twenty-nine subjects (81%) took a B-complex vitamin daily. The average length of time taking ribose was 25 days. The primary outcome measure was the initial versus final visit Visual Analog Scale (VAS) score: • 1. Visual Analog (well-being) Scale of 1-10 for five questions obtained before the first and after the last dose of ribose. • (A) How is your energy? (1=near dead and 10+excellent) • (B) How is your sleep? (1=no sleep and 10=8 hours of sleep a night without waking. • (C) How is your mental clarity? (1=brain dead and 10=good clarity) • (D) How bad is your pain? (1=very severe pain and 10=pain free) • (F) How is your overall sense of well-being? (1=near dead and 10=excellent) On taking the final dose, the patient was also asked in fill in: “much better, somewhat better, no change, somewhat worse and much worse.” The patients were also asked to comments on benefits or side effects. If they felt better, about how long did it take to feel better? Since the compliance was ascertained only by the amount of ribose remaining, the patients were asked to comment in more detail on their guesstimate of doses missed.

[2] = test system: statin drug-induced rhabdomyolysis patient; assay: Patient with drug-induced rhabdomyolysis given ribose (case report)
Excerpt: They were started on a statin drug. Within three months they were diagnosed with rhabdomyolysis resulting in chronic renal failure and symptoms of extreme fatigue and muscle pain. The patient was placed on five grams of ribose, twice daily, after symptoms had persisted for about four months. […] They stayed on the regimen for about three months. Upon cessation of ribose administration, the fatigue and pain slowly returned, but not as severe as had been previously experienced.

[3] = test system: patients with clinical statin-induced myalgias; assay: Placebo-controlled pilot study of ribose on muscle pain in patients with statin-induced myalgias; details: for Severity of symptoms, Mean (sd): scale 1=mild to 5=severe
Excerpt: Thirty patients aged 20 to 80 years of age presently taking statins and showing clinical statin-induced myalgias were randomized in a six-week placebo-controlled study of the effect of ribose on muscle pain. Fifteen patients were given five grams of ribose twice a day to determine the improvement in clinical symptoms, using an objective patient questionnaire and physician interview. The primary symptom reported was muscle pain, but other symptoms commonly reported included fatigue, poor sleep, a decrease in mental clarity and a reduced sense of well-being. Fifteen patients presently taking statins were given five grams of glucose twice a day as a control. All patients were given a complete history and physical exam. The patient's assessment of muscle pain, soreness or cramping was graded on a scale of one to five, five being the most severe.
Exclusions: Statin-induced myopathy with elevated CPJK over twice normal • Statin-induced hepatopathy with elevated LFTs over twice normal Pregnancy • Insulin-dependant diabetes • Diseases known to be associated with myalgias, such as fibromyalgia, PMR, CTD, genetic or acquired myopathies • New drugs or supplements during the study period
Inclusions: • Patients on any FDA-approved statin at recommended doses. • Constant use of statin dose and any other drugs for at least four weeks prior to study entry
Ribose or glucose were given as a pill or powder and compliance was monitored by pill count or powder measurement on each visit, weekly during the four week study period. A questionnaire was developed to validate the study results.
The severity of symptoms were compared at each follow-up visit. Subjects were asked to rate the severity of symptoms on a scale from 1 to 5; 1=mild and 5=severe.

[4] = person, five grams of ribose twice daily, within one week
[5] = individualized response, ribose n = 12

## O=C[C@H](O)[C@H](O)[C@H](O)CO [Ribose, D-ribose]
[1]; 23 of the 35 patients answering the general question
  patients experiencing at least some improvement during the study: 65.7%
[1]; 36 patients, post-ribose, scale 1-10, pre-ribose 3.8 (1.1), average 25 days on ribose
  VAS Energy, Post- Mean (std): 5.5 (1.5)
[1]; 36 patients, post-ribose, scale 1-10, pre-ribose 4.3 (1.3)
  VAS Well-being, Post- Mean (std): 5.6 (1.5)
[1]; 36 patients, post-ribose, scale 1-10, pre-ribose 4.8 (1.6)
  VAS Sleep, Post- Mean (std): 6.0 (1.9)
[1]; 36 patients, post-ribose, scale 1-10, pre-ribose 4.9 (1.5)
  VAS Mental Clarity, Post- Mean (std): 5.7 (1.7)
[1]; 36 patients, post-ribose, scale 1=very severe pain, 10=pain free, pre-ribose 4.9 (2.3)
  VAS Pain, Post- Mean (std): 5.6 (2.2)
[1]; general question at final dose
  patients reporting no change to somewhat worse than at the beginning of the study: three
[2]; [4]
  fatigue (patient report): greatly reduced
  muscle pain (patient report): gone
[2]; ribose resumed a month after cessation, fatigue and pain had slowly returned
  symptoms after returning to the ribose regimen: again experienced relief of symptoms
[3]; Week 1, n = 15
  Severity of symptoms, Mean (sd): 3.7 (0.8)
[3]; Week 2, n = 13
  Severity of symptoms, Mean (sd): 3.9 (0.8)
[3]; Week 3, n = 12
  Severity of symptoms, Mean (sd): 3.7 (0.8)
[3]; Week 4, n = 12
  Severity of symptoms, Mean (sd): 3.6 (1.0)
[3]; Week 5, wash out period, n = 9
  Severity of symptoms, Mean (sd): 3.4 (1.0)
[3]; Week 6, wash out period, n = 8
  Severity of symptoms, Mean (sd): 3.7 (0.8)
[3]; baseline, scale 1 to 5, placebo group 3.0
  severity of symptoms at baseline: 3.7
[3]; five grams ribose twice a day, 11 of 13 ribose patients, placebo 3 of 14 (21%)
  global assessment of symptom improvement: patients classified as Improved: 85%
[3]; four weeks, 10 of 12 remaining ribose patients, placebo 5 of 14 (36%), p=0.02
  patients reporting a change in symptoms at end of test period: 83%
[3]; [5]
  patients with More than 50% improvement: 36%
  patients with No improvement or worse: 27%
  patients with Some improvement: 73%
[3]; individualized response, ribose n = 12, listed as ribose
  patients with No improvement or worse: 27%
[3]; repeated measures analysis adjusted for baseline severity difference, p=0.35
  average improvement greater than the placebo group: 0.10 units per week
